According to PubChem BioAssay AID1919003 (Molecular Pharmacology Branch, DTP, NCI, 2023):

Tested on: 786-0 complex spheroids with HUVEC/MSC, growth % test/control
Test: Anticancer human tumor 786-0 cell line growth inhibition [AhR];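 also: compound exposure lasted seven days before the read-out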
Settings: for viability, T/C: stronger effect = lower value
Source text: Multicellular complex tumor spheroid response to aryl hydrocarbon receptor antagonists in combination with a variety of drugs and investigational agents in selected tumor cell lines
The current study was undertaken to assess response to aryl hydrocarbon receptor antagonists in combination with standard-of-care drugs and investigational agents in solid tumor complex spheroid models. Complex spheroids include a stromal component modeled by human endothelial cells (HUVEC) and fibroblasts modeled by human mesenchymal stem cells (MSCs). The concentration ranges selected for each drug and investigational agent were based upon clinically achievable concentrations if the clinical Cmax of the agent was known.
Compounds. The drugs and investigational agents: BAY 2416964 (NSC825713), GNF351 (NSC835774), CH-223191 (NSC835775), CPI-455 (NSC825282), aza-TdCyd (NSC777586), decitabine (NSC127716), belinostat (NSC758774), entinostat (NSC756642), pevonedistat (NSC761192), tazemetostat (NSC777109), talazoparib (NSC765396), olaparib (NSC753686), selinexor (NSC780203), nedisertib (M3814, NSC802822), bortezomib (NSC756655), venetoclax (NSC766270), doxorubicin (NSC123127), elimusertib (BAY189344, NSC800525), ceralasertib (AZD6738, NSC777638), TAK-243 (NSC785004), alisertib (NSC759677), etoposide (NSC141540), topotecan (NSC609699), eribulin (NSC707389), gemcitabine (NSC613327), carboplatin (NSC241240), cisplatin (NSC119875), and SN-38 (NSC673596) were obtained from the National Cancer Institute (NCI) Developmental Therapeutics Program Chemical Repository (32). The FDA-approved anticancer drug set is available from the Developmental Therapeutics Program at https://dtp.cancer.gov/organization/dscb/obtaining/available plates.htm. […] The stock solutions were prepared in dimethyl sulfoxide (DMSO, Sigma-Aldrich, St. Louis, MO, cat. D2650), except for the platinum compounds which were prepared in saline (Quality Biological, Gaithersburg, MD, cat. 114-055-101), at 800-fold the tested concentration and stored at -70 degrees C prior to their use. All drugs and investigational agents were tested over a range starting from a high concentration at or near the clinical Cmax and decreasing in half-log increments. If the clinical Cmax for an agent had not been determined, the highest concentration tested was 10 microM (Table 1).
Cell Culture. All cells were maintained in an incubator at 37 degrees C and 5% CO2 with 95% humidity. The PDC lines were cultured according to standard operating procedures established by the NCI PDMR (https://pdmr.cancer.gov). Briefly, all PDCs were thawed and cultured in Matrigel-coated flasks prepared with a working solution of 1X Ham's F-12 nutrient mix, without supplementation (Invitrogen, Waltham, MA, cat. 11765054), 100 U/mL penicillin-streptomycin (Invitrogen, cat. 15140122), and 2.5% Matrigel (Corning Inc., Corning, NY, cat. 354248) for the first three passages. All PDCs were cultured in complete DMEM/F-12 media containing advanced DMEM/F-12 (Invitrogen, cat. 12634028), 4.9% defined fetal bovine serum, heat inactivated (HyClone Laboratories Inc., Logan, UT, cat. SH30070.03HI), 389 ng/mL hydrocortisone (Sigma-Aldrich, cat. H4001), 9.7 ng/mL human EGF recombinant protein (Invitrogen, cat. PHG0313), 23.4 microg/mL adenine (Sigma-Aldrich, cat. A2786), 97.3 U/mL penicillin-streptomycin (Invitrogen, cat. 15140122), 1.9 mM L-glutamine (Invitrogen, cat. 25030081), and 9.7 microM Y-27632 dihydrochloride (Tocris Bioscience, Bristol, United Kingdom, cat. 1254). The PDCs were cultured in complete DMEM/F12 media without 10 microM Y-27632 dihydrochloride for at least two passages prior to the screen. The established cell lines NCI-H1341 and […] were cultured in DMEM/F-12, HEPES (Invitrogen, cat. 11330032), 5% defined fetal bovine serum (HyClone Laboratories Inc., cat. SH30070.03), ITS premix universal culture supplement [insulin (5 microg/mL), transferrin (5 microg/mL), and selenious acid (5 ng/mL)] […]

## O=C(C=Cn1cnc(-c2cc(C(F)(F)F)cc(C(F)(F)F)c2)n1)NNc1cnccn1 + Cc1ccccc1N=Nc1ccc(NC(=O)c2ccnn2C)c(C)c1
Curve of first compound, second compound 0.1 µM
  IC50: 542 nM
Curve of first compound, second compound 0.316 µM
  IC50: 520 nM
Curve of first compound, second compound 1 µM
  IC50: 470 nM
Curve of first compound, second compound 3.16 µM
  IC50: 566 nM
Curve of first compound, second compound 10 µM
  IC50: 424 nM
Second compound 0.1 µM, first compound 0.00949 µM
  viability, T/C: 103%
Second compound 0.1 µM, first compound 0.03 µM
  viability, T/C: 108%
Second compound 0.1 µM, first compound 0.0949 µM
  viability, T/C: 104%
Second compound 0.1 µM, first compound 0.3 µM
  viability, T/C: 59.5%
Second compound 0.1 µM, first compound 0.949 µM
  viability, T/C: 41.4%
Second compound 0.1 µM, first compound 3 µM
  viability, T/C: 15.4%
Second compound 0.316 µM, first compound 0.00949 µM
  viability, T/C: 109%
Second compound 0.316 µM, first compound 0.03 µM
  viability, T/C: 105%
Second compound 0.316 µM, first compound 0.0949 µM
  viability, T/C: 115%
Second compound 0.316 µM, first compound 0.3 µM
  viability, T/C: 64.7%
Second compound 0.316 µM, first compound 0.949 µM
  viability, T/C: 38%
Second compound 0.316 µM, first compound 3 µM
  viability, T/C: 17.3%
Second compound 1 µM, first compound 0.00949 µM
  viability, T/C: 113%
Second compound 1 µM, first compound 0.03 µM
  viability, T/C: 100%
Second compound 1 µM, first compound 0.0949 µM
  viability, T/C: 104%
Second compound 1 µM, first compound 0.3 µM
  viability, T/C: 55.8%
Second compound 1 µM, first compound 0.949 µM
  viability, T/C: 38%
Second compound 1 µM, first compound 3 µM
  viability, T/C: 16.4%
Second compound 3.16 µM, first compound 0.00949 µM
  viability, T/C: 91.6%
Second compound 3.16 µM, first compound 0.03 µM
  viability, T/C: 92.7%
Second compound 3.16 µM, first compound 0.0949 µM
  viability, T/C: 101%
Second compound 3.16 µM, first compound 0.3 µM
  viability, T/C: 63.7%
Second compound 3.16 µM, first compound 0.949 µM
  viability, T/C: 38.6%
Second compound 3.16 µM, first compound 3 µM
  viability, T/C: 18.2%
Second compound 10 µM, first compound 0.00949 µM
  viability, T/C: 88.4%
Second compound 10 µM, first compound 0.03 µM
  viability, T/C: 84.8%
Second compound 10 µM, first compound 0.0949 µM
  viability, T/C: 74.5%
Second compound 10 µM, first compound 0.3 µM
  viability, T/C: 56.4%
Second compound 10 µM, first compound 0.949 µM
  viability, T/C: 34.8%
Second compound 10 µM, first compound 3 µM
  viability, T/C: 17.3%

## CC(CO)NC(=O)c1cc(-c2ccc(Cl)cc2)nn(-c2cnn(C)c2)c1=O (configuration not stated)
Compound 0.1 µM
  viability, T/C: 100% [middle of 20 runs]
Compound alone, run of 08/08/2022
  IC50: > 10000 nM
